Measurements from patent US6562873B2, “Compositions containing therapeutically active components having enhanced solubility” (Allergan, Inc., priority 2000, dated 2003).
Where two headings read alike, the source gives them in different places. Marks after values point to notes of the source that are not given here.

Tests used:
[1] = for Solubility of Brimonidine tartrate (%): 15 days; for soluble Brimonidine tartrate: FIG. 1
Procedure: The pH-solubility profiles of Brimonidine tartrate in compositions (solutions) containing SECs and oxy-chloro components were determined. Particularly, the effects of sodium carboxymethylcellulose (CMC), an SEC, on the solubility of Brimonidine tartrate at various pH conditions were determined. The various concentrations of CMC tested with Brimonidine tartrate were 0%, 0.056%, 0.17%, 0.5%, 1.5% (w/v), Table III.
The samples tested also contained isotonic components, buffer components, and stabilized chlorine dioxide (Purite™), Table III. Sodium carboxymethyl-cellulose, sodium chloride, potassium chloride, calcium chloride dihydrate, and magnesium chloride hexahydrate were USP grade. Boric acid and sodium borate decahydrate were NF grade.
Each sample (1 through 5) was subjected to a range of pH's from about 7 to about 10. The vials containing the sample solutions were placed on a laboratory rotator and left for equilibration for fifteen days at room temperature (^˜21° C.). The sample solutions were filtered using a 25 mm diameter polysulfone cellulose acetate syringe type filter with 0.45 μm pore size. The filtered solutions were assayed for Brimonidine.
Conventional HPLC and detection techniques were used to detect and determine the concentrations of soluble Brimonidine tartrate. […] The solubility is plotted against pH for each CMC concentration. The experimental data points were fitted to a modified Henderson-Hasselbalch equation using a nonlinear least squares routine (Deltagraph version 4.0 DeltaPoint, Inc.), FIG. 1.

[2] = for Solubility: 23° C., 2 days stirring, theoretical concentration based on sample weight, all dissolved
Procedure: Table 1. It will be understood that concentrations of adrenergic agonists other than 0.5% may be used, so long as they have therapeutic activity. Likewise, the temperature may be varied, for example, solubility curves may be performed at 37° C. (98.6° F.). The formulation vehicle was prepared by first dissolving polyvinyl alcohol (PVA) in water. The PVA was added to approximately ⅓ of the required total amount of purified water with constant stirring. The slurry was stirred for 20-30 minutes and then heated to 80-95° C. with constant stirring. The mixture was removed from the heat source within 1 hour after having reached the temperature of 80-90° C. and stirred for an additional 10 minutes to ensure homogeneity (Part I). The other ingredients of the Ophthalmic Solution, except for Brimonidine tartrate, were dissolved in a separate container with an additional ⅓ of the required total amount of purified water (Part II). The PVA mixture (Part I) was then quantitatively transferred to Part II using several rinse volumes of purified water. The solution was adjusted to final volume with purified water without pH adjustment.
Brimonidine tartrate was weighed and transferred to a 10 mL test tube containing 5 mL of the formulation vehicle described above. The pH of each sample was then adjusted to a desired value using dilute sodium hydroxide and/or dilute hydrochloric acid. The samples were placed in a rack on a stir plate and stirred at high speed to achieve uniform mixing for 2 days; a partition was placed between the rack and the stir plate to prevent any heat diffusion from the stir plate to the samples.
At the end of two days of stirring, the pH value of each sample was measured, and then approximately 1 mL of each sample was placed in a micro centrifuge tube (polypropylene) and centrifuged at 4,000 rpm for 10 minutes. The supernatant was filtered through a 1 μm filter unit (Whatman, 13 mm, PTFE). The first 3-4 drops of the filtrate were discarded; the rest of the filtrate was received and diluted quantitatively with HPLC mobile phase. […] A control of […] Brimonidine tartrate was prepared in the formulation vehicle at pH 6.3-6.5 and assayed before (untreated) and after (treated) centrifugation and filtration. This was done to evaluate the potential loss of Brimonidine tartrate in these two steps of the sample preparation. To ensure reproducibility, the study was repeated on consecutive days.

Substance: 5-bromo-6-(2-imidozolin-2-ylamino) quinoxaline [Brimonidine tartrate]
- Solubility of Brimonidine tartrate (%) ([1]; 0% CMC, pH 6.68, room temperature (~21° C.)): 1.4256%
- Solubility of Brimonidine tartrate (%) ([1]; 0% CMC, pH 7.11, room temperature (~21° C.)): 0.2064%
- Solubility of Brimonidine tartrate (%) ([1]; 0% CMC, pH 7.68, room temperature (~21° C.)): 0.0786%
- Solubility of Brimonidine tartrate (%) ([1]; 0% CMC, pH 8.50, room temperature (~21° C.)): 0.0286%
- Solubility of Brimonidine tartrate (%) ([1]; 0% CMC, pH 10.09, room temperature (~21° C.)): 0.0218%
- Solubility of Brimonidine tartrate (%) ([1]; 0.056% CMC, pH 6.67, room temperature (~21° C.)): 0.9302%
- Solubility of Brimonidine tartrate (%) ([1]; 0.056% CMC, pH 7.11, room temperature (~21° C.)): 0.2828%
- Solubility of Brimonidine tartrate (%) ([1]; 0.056% CMC, pH 7.77, room temperature (~21° C.)): 0.0721%
- Solubility of Brimonidine tartrate (%) ([1]; 0.056% CMC, pH 9.93, room temperature (~21° C.)): 0.0234%
- Solubility of Brimonidine tartrate (%) ([1]; 0.17% CMC, pH 6.68, room temperature (~21° C.)): 1.4200%
- Solubility of Brimonidine tartrate (%) ([1]; 0.17% CMC, pH 6.93, room temperature (~21° C.)): 0.7302%
- Solubility of Brimonidine tartrate (%) ([1]; 0.17% CMC, pH 7.81, room temperature (~21° C.)): 0.0735%
- Solubility of Brimonidine tartrate (%) ([1]; 0.17% CMC, pH 8.55, room temperature (~21° C.)): 0.0328%
- Solubility of Brimonidine tartrate (%) ([1]; 0.17% CMC, pH 10.05, room temperature (~21° C.)): 0.0241%
- Solubility of Brimonidine tartrate (%) ([1]; 0.5% CMC, pH 6.67, room temperature (~21° C.)): 1.4464%
- Solubility of Brimonidine tartrate (%) ([1]; 0.5% CMC, pH 7.10, room temperature (~21° C.)): 0.3693%
- Solubility of Brimonidine tartrate (%) ([1]; 0.5% CMC, pH 7.56, room temperature (~21° C.)): 0.1451%
- Solubility of Brimonidine tartrate (%) ([1]; 0.5% CMC, pH 8.46, room temperature (~21° C.)): 0.0313%
- Solubility of Brimonidine tartrate (%) ([1]; 0.5% CMC, pH 9.94, room temperature (~21° C.)): 0.0250%
- Solubility of Brimonidine tartrate (%) ([1]; 1.5% CMC, pH 7.35, room temperature (~21° C.)): 0.1904%
- Solubility of Brimonidine tartrate (%) ([1]; 1.5% CMC, pH 8.10, room temperature (~21° C.)): 0.0498%
- Solubility of Brimonidine tartrate (%) ([1]; 1.5% CMC, pH 8.67, room temperature (~21° C.)): 0.0311%
- Solubility of Brimonidine tartrate (%) ([1]; 1.5% CMC, pH 10.11, room temperature (~21° C.)): 0.0222%
- effect of CMC concentration on solubility ([1]; FIG. 1, 0-1.5% CMC): tends to increase with increasing CMC concentrations
- soluble Brimonidine tartrate ([1]; pH 7.5, 0% CMC): 1000 ppm
- soluble Brimonidine tartrate ([1]; pH 7.5, 0.056% CMC): 1300 ppm
- soluble Brimonidine tartrate ([1]; pH 7.5, 0.17% CMC): 1300 ppm
- soluble Brimonidine tartrate ([1]; pH 7.5, 0.5% CMC): 1600 ppm
- soluble Brimonidine tartrate ([1]; pH 7.5, 1.5% CMC): about 1400 ppm
- Concentration of Brimonidine tartrate in control after centrifugation and filtration step ([2]; Control (treated), formulation vehicle at pH 6.3-6.5, Study 1): 0.484^d % w/v
- Concentration of Brimonidine tartrate in control before centrifugation and filtration step ([2]; Control (untreated), formulation vehicle at pH 6.3-6.5, Study 1): 0.486^c % w/v
- Solubility ([2]; Study 1, sample 1, pH 5.55, Ophthalmic Solution vehicle): ≦164.4^b % w/v
- Solubility ([2]; Study 2, sample 1, pH 5.50, Ophthalmic Solution vehicle): ≦200.6^b % w/v
